One test has as its target T1, OGA (Homo sapiens, UniProt O60502).
T1 construct: HEK293 cells inducible for P301L mutant human Tau (isoform 2N4R) were established at Janssen; endogenous in cells; host or cells: HEK293 cells inducible for P301L mutant human Tau (2N4R)
T1 sequence (O60502 1-916): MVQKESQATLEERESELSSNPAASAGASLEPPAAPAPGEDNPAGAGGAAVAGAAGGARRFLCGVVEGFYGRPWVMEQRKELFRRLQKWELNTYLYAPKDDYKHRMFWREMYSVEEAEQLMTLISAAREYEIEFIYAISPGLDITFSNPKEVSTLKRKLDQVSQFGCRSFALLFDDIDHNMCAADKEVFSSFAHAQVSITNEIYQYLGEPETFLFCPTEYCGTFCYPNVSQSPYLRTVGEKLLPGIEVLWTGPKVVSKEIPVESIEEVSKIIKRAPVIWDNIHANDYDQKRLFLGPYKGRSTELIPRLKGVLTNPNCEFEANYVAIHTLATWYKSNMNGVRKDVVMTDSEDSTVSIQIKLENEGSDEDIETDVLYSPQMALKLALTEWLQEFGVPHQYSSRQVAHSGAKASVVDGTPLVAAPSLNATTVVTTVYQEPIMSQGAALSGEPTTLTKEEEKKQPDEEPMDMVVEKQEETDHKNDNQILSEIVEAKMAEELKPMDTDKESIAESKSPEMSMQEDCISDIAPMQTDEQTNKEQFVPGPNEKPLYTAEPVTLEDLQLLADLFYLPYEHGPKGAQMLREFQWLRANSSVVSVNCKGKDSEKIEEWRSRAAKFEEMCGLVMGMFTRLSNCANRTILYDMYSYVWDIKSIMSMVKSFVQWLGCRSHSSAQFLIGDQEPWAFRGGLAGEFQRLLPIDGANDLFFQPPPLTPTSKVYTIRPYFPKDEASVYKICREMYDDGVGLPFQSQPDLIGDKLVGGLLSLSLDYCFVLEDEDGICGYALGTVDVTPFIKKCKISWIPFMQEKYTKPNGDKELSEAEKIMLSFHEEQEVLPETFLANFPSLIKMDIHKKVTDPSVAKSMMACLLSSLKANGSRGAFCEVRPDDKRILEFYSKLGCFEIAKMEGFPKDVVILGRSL
Description: OGA cellular assay (ICC detection of O-GlcNAcylated proteins in HEK293 cells inducible for P301L mutant human Tau). The class given is cell-based. Conditions: 6 hours incubation; for Emax: HEK293, HEK293 cells inducible for P301L mutant human Tau; for EC50: read-out: Cellular hOGA, pEC50 (converted). In short, it runs like this:
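HEK293 cells with inducible P301L 2N4R Tau, seeded in low-glucose medium, were exposed to compounds for 6 hours (0.2% DMSO), then PFA-fixed and stained with CTD110.6. Imaging intensity at 488 nm measured O-GlcNAcylation, with Hoechst nuclei counts for toxicity. IC50s came from non-linear regression, with Thiamet G at 200 uM as maximum inhibition.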

Test [1] concerns the target T2, recombinant human Meningioma Expressed Antigen 5 (MGEA5), also referred to as O-GlcNAcase (OGA) (Homo sapiens, UniProt O60502).
T2 construct: Full length OGA enzyme was purchased at OriGene (cat #TP322411); purchased OriGene TP322411
T2 sequence (O60502 1-916): T1 sequence (O60502 1-916)
The test can be described thus: OGA biochemical assay (inhibition of FM-GlcNAc hydrolysis, fluorescence). The settings on record: for Emax: read-out: Enzymatic Emax (%); for IC50: read-out: Enzymatic hOGA, pIC50 (converted). In short, it runs like this: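 Full-length OGA at 2 nM was pre-incubated 60 min at room temperature with compound, then FM-GlcNAc at 100 uM final was added in citrate/phosphate buffer pH 7.2 with 0.005% Tween-20. After 6 h at room temperature, carbonate pH 11.0 stopped the reaction. Fluorescence read at 485/538 nm; IC50 and Hill coefficient from curve fit against no-inhibitor and saturating-standard controls.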

[2] abbreviates: HEK293 cells inducible for P301L mutant human Tau.

SMILES strings stand for the structures.

This note sets out measurements from patent US20210122763A1, “OGA INHIBITOR COMPOUNDS” (Janssen Pharmaceutica NV, priority 2018, published 2021).

In the case of `Cc1cc(OC2CCN(C(C)c3nc4c(cc3F)CCO4)CC2)cc(C)n1` (stereo not shown) [Compound 6], the Emax on OGA (maximum = Thiamet G 200 uM) is 87%. Also, the EC50 on OGA (setting [2]) is 17.4 nM. Besides, in test [1], the Emax is 101% and the IC50 is 3.98 nM.
Take `CC(c1ccc2c(n1)OCCO2)N1CCC(Oc2ccc(C(F)(F)F)nc2)CC1` (stereo not shown) [Compound 68]: on OGA (maximum = Thiamet G 200 uM), the Emax is 57%. Moreover, the EC50 at OGA (setting [2]) was 794 nM. In test [1], the Emax is 94% and the IC50 is 79.4 nM.
Take `Cc1cccnc1OC1CCN(C(C)c2ccc3c(n2)OCCO3)CC1` (stereo not shown) [Compound 70]: the Emax at OGA (maximum = Thiamet G 200 uM) is 46%. Besides, on OGA (setting [2]), the EC50 is over 1000 nM. Besides, in test [1], the Emax came out at 98% and the IC50 was 398 nM.
The matching figures for `Cc1cc(OC2CCN(C(C)c3cc4c(cn3)OCCO4)CC2)cc(C)n1` (stereo not shown) [Compound 29]: 7%, over 1000 nM, 60% and 5010 nM.
For `Cc1cc(C)c(OC2CCN(C(C)c3nc4c(cc3F)OCCO4)CC2)nn1` (stereo not shown) [Compound 88] the same measures were 59%, 501 nM, 98% and 100 nM.
Take `CCc1cc(OC2CCN(C(C)c3ccc4c(n3)OCCO4)CC2)cc(C)n1` (stereo not shown) [Compound 129]: on OGA (maximum = Thiamet G 200 uM), the Emax was determined as 83%. For the same molecule, the EC50 at OGA (setting [2]) was 126 nM. For the same molecule, in test [1], the Emax stood at 97% and the IC50 is 63.1 nM.
For `Cc1cc(OC2CCN(C(C)c3cc4nc(C)sc4cc3F)CC2)cc(C)n1` (stereo not shown) [Compound 8] the same measures were 89%, 63.1 nM, 100% and 15.8 nM.
As to `Cc1cc(OC2CCN([C@@H](C)c3ccc4c(n3)OCC4)CC2)cc(C)n1` (single isomer, unassigned) [Compound 62], the Emax came out at 6% on OGA (maximum = Thiamet G 200 uM) and 90% in test [1]. Further, the EC50 at OGA (setting [2]) was over 1000 nM. In addition, the IC50 in test [1] was 1000 nM.
The matching figures for `Cc1cc(OC2CCN(C(C)c3cnc4c(c3)OCCO4)CC2)cc(C)n1` (stereo not shown) [Compound 5]: 22%, 93%, over 1000 nM and 1260 nM.
The matching figures for `CC(c1ccc2c(n1)OCCO2)N1CCC(COc2ccc(C(F)(F)F)cn2)CC1` (stereo not shown) [Compound 43]: 25%, 96%, over 1000 nM and 501 nM.
The matching figures for `CC(c1ccc2c(n1)OCCO2)N1CCC(Oc2ncc(C#N)cc2F)CC1` (stereo not shown) [Compound 105]: 16%, 97%, over 1000 nM and 398 nM.
`CC(c1nc2c(cc1F)OCCO2)N1CCC(Oc2ccc(C(=O)N(C(C)C)C(C)C)nc2)CC1` (stereo not shown) [Compound 123]: on OGA (maximum = Thiamet G 200 uM), the Emax worked out at 59%. At OGA (setting [2]), the EC50 is 100 nM. In test [1], the Emax came out at 93% and the IC50 was 12.6 nM.
The matching figures for `Cc1cc(OC2CCN(C(C)c3nc4c(cc3F)OCCO4)CC2)cc(C#N)n1` (stereo not shown) [Compound 128]: 95%, 50.1 nM, 102% and 7.94 nM.
For `COc1cc(COC2CCN(C(C)c3nc4c(cc3F)OCCO4)CC2)cc(C)n1` (stereo not shown) [Compound 134], the Emax on OGA (maximum = Thiamet G 200 uM) turned out to be 81%. In addition, the EC50 at OGA (setting [2]) is 63.1 nM. Moreover, in test [1], the Emax came to 94% and the IC50 was 10 nM.
The matching figures for `Cc1cc(NC2CCN(C(C)c3ccc4c(n3)OCCO4)CC2)cc(C)n1` (stereo not shown) [Compound 78]: 55%, 813 nM, 99% and 100 nM.
As to `COc1cc(OC2CCN(C(C)c3ccc4sc(C)nc4n3)CC2)cc(C)n1` (single isomer, unassigned) [Compound 23], on OGA (HEK293 cells inducible for P301L mutant human Tau, maximum = Thiamet G 200 uM), the “Cellular Emax (%)” value is given as −8%. For the same molecule, the EC50 at OGA (setting [2]) is over 1000 nM. Besides, in test [1], the “Enzymatic Emax (%)” value is given as 59% and the IC50 was 3980 nM.
Take `Cc1cc(OC2CCN(C(C)c3ccc4c(n3)OCC4)CC2)cc(C)n1` (stereo not shown) [Compound 60]: the Emax on OGA (maximum = Thiamet G 200 uM) was 84%. Further, on OGA (setting [2]), the EC50 is 117 nM. Besides, in test [1], the Emax came to 95% and the IC50 was 39.8 nM.
On to `Cc1cncc(OC2CCN(C(C)c3ccc4c(n3)OCCO4)CC2)c1` (stereo not shown) [Compound 47], for which the results for the Emax (at OGA (maximum = Thiamet G 200 uM); in test [1]) were 67% and 99%, respectively. In addition, the EC50 at OGA (setting [2]) was 316 nM. The IC50 in test [1] was 63.1 nM.
Take `COc1cc(OC2CCN(C(C)c3ccc4c(n3)OCCO4)CC2)cc(C)n1` (stereo not shown) [Compound 14]: on OGA (maximum = Thiamet G 200 uM), the Emax turned out to be 82%. Moreover, the EC50 at OGA (setting [2]) is 126 nM. In test [1], the Emax was determined as 100% and the IC50 was 20 nM.
In the case of `COc1nccnc1OC1CCN(C(C)c2ccc3c(n2)OCCO3)CC1` (stereo not shown) [Compound 108], on OGA (maximum = Thiamet G 200 uM), the Emax amounted to 15%. The EC50 at OGA (setting [2]) was over 1000 nM. Besides, in test [1], the Emax stood at 101% and the IC50 is 631 nM.
For `Cc1cc(CC2(F)CCN(C(C)c3ccc4c(n3)OCCO4)CC2)cc(C)n1` (stereo not shown) [Compound 73] the same measures were 18%, over 1000 nM, 90% and 2000 nM.
Consider `C[C@H](c1nc2c(cc1F)OCCO2)N1CCC(Oc2ccc(C#N)nn2)CC1` (single isomer, unassigned) [Compound 85], for which the Emax was -3% at OGA (maximum = Thiamet G 200 uM) and -11% in test [1]. Besides, on OGA (setting [2]), the EC50 is over 1000 nM. The IC50 in test [1] is over 10000 nM.
In the case of `Cc1ccc(OC2CCN(C(C)c3ccc4c(n3)OCCO4)CC2)cn1` (stereo not shown) [Compound 41], the Emax on OGA (maximum = Thiamet G 200 uM) was found to be 74%. Moreover, the EC50 on OGA (setting [2]) is 501 nM. In addition, in test [1], the Emax was determined as 99% and the IC50 was 50.1 nM.
On to `CC(c1ccc2c(n1)OCCO2)N1CCC(Oc2cncc(F)c2)CC1` (stereo not shown) [Compound 74], for which the Emax on OGA (maximum = Thiamet G 200 uM) was found to be 44%. On OGA (setting [2]), the EC50 was over 1000 nM. Moreover, in test [1], the Emax turned out to be 99% and the IC50 is 100 nM.
The matching figures for `Cc1cnc(OC2CCN(C(C)c3nc4c(cc3F)OCCO4)CC2)c(C)n1` (stereo not shown) [Compound 84]: 73%, 316 nM, 101% and 15.8 nM.
On to `CC(c1ccc2c(n1)OCCO2)N1CCC(Oc2ccc(F)cn2)CC1` (stereo not shown) [Compound 115], for which the Emax on OGA (maximum = Thiamet G 200 uM) is 25%. The EC50 at OGA (setting [2]) was over 1000 nM. In addition, in test [1], the Emax stood at 96% and the IC50 was 200 nM.
The matching figures for `CC(c1ccc2c(n1)OCCO2)N1CCC(Oc2cnc(Cl)nc2)CC1` (stereo not shown) [Compound 67]: 60%, 631 nM, 102% and 126 nM.
In the case of `Cc1cc(OC2CCN(C(C)c3cnc4sc(C)nc4c3)CC2)cc(C)n1` (stereo not shown) [Compound 40], the Emax at OGA (maximum = Thiamet G 200 uM) worked out at 59%. Moreover, the EC50 at OGA (setting [2]) was 631 nM. For the same molecule, in test [1], the Emax was 101% and the IC50 is 126 nM.
For the molecule `Cc1cc(COC2CCN(C(C)c3ccc4c(n3)OCC4)CC2)cc(C)n1` (stereo not shown) [Compound 154], the Emax on OGA (maximum = Thiamet G 200 uM) worked out at 81%. Besides, the EC50 at OGA (setting [2]) is 158 nM. In test [1], the Emax stood at 94% and the IC50 is 39.8 nM.
Take `Cc1cncc(OC2CCN(C(C)c3nc4c(cc3F)OCCO4)CC2)n1` (stereo not shown) [Compound 109]: the Emax on OGA (maximum = Thiamet G 200 uM) turned out to be 77%. In addition, the EC50 on OGA (setting [2]) is 200 nM. In addition, in test [1], the Emax came to 99% and the IC50 was 12.6 nM.
For `Cc1cc(OC2CCN(C(C)c3ccc4sc(C)nc4n3)CC2)cc(C(F)(F)F)n1` (stereo not shown) [Compound 21] the same measures were 55%, 813 nM, 101% and 50.1 nM.

Broadly, the Emax is the maximal effect, on the per cent scale that the assay sets.
